For 79 molecules, melting point results are on record in a melting point compilation (Tetko et al.).

The molecule `O=S1(=O)CCCN1c1cccc(Br)c1` displayed a melting point of 74 to 76 °C.

Regarding `CC(C(=O)O)c1cccc(Cl)c1` (centres undefined), the melting point lay within 75 to 77 °C.

`O=C(O)C1CCN(C(=O)Nc2ccccc2)CC1` had a melting point of 178 to 183 °C.

`O=C(O)/C=C/c1ccc(N2CCCS2(=O)=O)cc1` had a melting point of 252 to 254 °C.

The molecule `OCc1coc(-c2ccccc2)n1` showed a melting point of 79 to 81 °C.

Molecule `COC(=O)C(C(=O)OC)c1ccc(C(F)(F)F)cc1[N+](=O)[O-]` registered a melting point of 63 to 65 °C.

The molecule `O=Cc1c(-c2ccccc2)nc2ccccn12` gave a melting point of 144 to 146 °C.

For `Cc1nnc2[nH]cc(C(=O)NN)cc1-2`, the melting point lay in the range of 289 to 291 °C.

`CC(Cl)C(=O)c1ccc2c(c1)NC(=O)CO2` (centres undefined) displayed a melting point of 186 to 188 °C.

For the molecule `CC1CCC(N2CC(C(=O)O)CC2=O)CC1` (centres undefined), the melting point was in the range of 143 to 145 °C.

In the case of `COC(=O)c1nc2nc(C(C)C)cc(Cl)n2n1`, the melting point fell in the range of 104 to 106 °C.

`CCOC(=O)Nc1cccc(O)c1` showed a melting point of 95 to 97 °C.

For `NC(=O)NCc1ccccc1Cl`, the melting point was 149 to 151 °C.

`Nc1ccnn1CCc1ccccc1`: the melting point lay in the range of 67 to 69 °C.

For the molecule `NNC(=O)C1CCS(=O)(=O)C1` (centres undefined), the melting point was in the range of 71 to 73 °C.

As for `CC(=O)Nc1cccc(CO)c1`, the melting point was in the range of 113 to 115 °C.

For `Cc1nn(-c2ccccc2)c(C)c1C(O)C(F)(F)F` (centres undefined), the melting point lay within 162 to 164 °C.

`CNc1ccncn1`: the melting point fell in the range of 77 to 79 °C.

In turn, `Clc1ncnc2[nH]ccc12` gave a melting point of 195 to 197 °C.

Turning to `ClCc1nc(-c2ccsc2)no1`, the melting point is 52 to 56 °C.

`COc1cccc(C(=O)O)c1F` displayed a melting point of 157 to 160 °C.

`O=C(O)C(S)c1ccccc1` (centres undefined) showed a melting point of 58 to 60 °C.

`CC(C)(C)C(=O)N1CCOC(C(=O)O)C1` (centres undefined) registered a melting point of 148 to 150 °C.

As for `CC1CC(C)CN(S(=O)(=O)c2ccc(NN)nc2)C1` (centres undefined), the melting point was in the range of 217 to 219 °C.

`Ic1ccc(OCCc2ccccc2)cc1`: the melting point lay in the range of 64 to 66 °C.

Regarding `O=C(Nc1ccccc1)c1ccc(O)cc1`, the melting point lay in the range of 195 to 197 °C.

`O=C(O)CCn1cnc2ccccc2c1=O` gave a melting point of 181 to 183 °C.

In turn, `CC(C)(C)NS(=O)(=O)c1ccc(Cl)c(C(=O)O)c1` displayed a melting point of 179 to 181 °C.

Molecule `CSc1ccc(Cl)nn1` displayed a melting point of 104 to 106 °C.

`O=Cc1cnc(-c2ccccc2)s1`: the melting point was in the range of 87 to 89 °C.

With `NNc1nc(-c2ccc(Cl)cc2)no1`, the melting point fell in the range of 179 to 181 °C.

`Nc1ccc(SCc2cccnc2)cc1` registered a melting point of 125 to 127 °C.

As to `NS(=O)(=O)c1cccc(-n2cnnn2)c1`, the melting point fell in the range of 181 to 183 °C.

On to `O=C(O)CN1C(=O)c2ccc(Br)cc2C1=O`, for which the melting point was in the range of 204 to 206 °C.

`CCc1cccc2c(C(=O)CC#N)c[nH]c12` had a melting point of 178 to 180 °C.

`COC(=O)c1cnc2[nH]nc(C)c2c1` had a melting point of 185 to 187 °C.

The molecule `CC(C)c1nn(-c2ccccc2)cc1C=O` showed a melting point of 59 to 61 °C.

Molecule `CC1CN(Cc2ccccc2N)CC(C)O1` (centres undefined) yielded a melting point of 93 to 95 °C.

In the case of `CCOc1ccc(S(=O)(=O)Cl)cc1`, the melting point lay in the range of 40 to 45 °C.

On to `O=C(O)c1cnn(-c2cccc(C(F)(F)F)c2)c1C1CC1`, for which the melting point lay within 172 to 174 °C.

`CCc1ccc(N)c(C(=O)OC)c1` returned a melting point of 83 to 85 °C.

The molecule `O=Cc1sc2ccccc2c1Cl` showed a melting point of 104 to 106 °C.

`COc1ccc(N)cc1S(=O)(=O)Nc1ccc(Cl)cc1`: the melting point is 105 to 107 °C.

For `O=C(O)CCc1nc(-c2cc(Br)cs2)no1`, the melting point fell in the range of 129 to 131 °C.

For `O=C(O)CNS(=O)(=O)c1ccccc1F`, the melting point was in the range of 170 to 172 °C.

Turning to `CN(C)c1nccc(Cl)n1`, the melting point lay within 79 to 81 °C.

For `Nc1nc(Cl)ccc1C(=O)O`, the melting point was 216 to 218 °C.

Regarding `CC(C)c1ccccc1Nc1nc2ccccc2s1`, the melting point lay in the range of 115 to 116 °C.

`CCN(CC)c1ccc(S(N)(=O)=O)cc1NC(=O)CCl` registered a melting point of 135 to 137 °C.

`CN(C)C(=O)c1ccc(S(N)(=O)=O)cc1` came in with a melting point of 206 to 208 °C.

Molecule `CCOC(=O)c1c(N)sc(C)c1CC` registered a melting point of 45 to 47 °C.

For `Cc1cc(NN)ncn1`, the melting point was 99 to 101 °C.

The molecule `Ic1nnc(-c2ccccc2)s1` returned a melting point of 105 to 107 °C.

With `N#Cc1ccc(C(=O)CC(=O)C(F)(F)F)cc1`, the melting point lay within 128 to 130 °C.

`OCc1ccc(-n2ccnc2)nc1` registered a melting point of 128 to 130 °C.

`Cc1c(C(=O)O)nnn1-c1cccc2cccnc12` registered a melting point of 188 to 190 °C.

Regarding `Cc1nnc(-c2ccc(C(=O)O)cc2)n1C`, the melting point was 269 to 271 °C.

Regarding `CN(C)C(=O)c1cccc(C#N)c1`, the melting point fell in the range of 87 to 89 °C.

As for `O=C1CC(c2ccccc2)C(=O)O1` (centres undefined), the melting point lay within 51 to 55 °C.

In turn, `O=CN1CC(=O)NC(=O)C1` gave a melting point of 213 to 215 °C.

`O=C(O)c1ccc(CN(Cc2ccccc2)S(=O)(=O)c2ccc(Cl)cc2)cc1` registered a melting point of 203 to 205 °C.

Molecule `CC(Cl)C(=O)N1c2ccccc2Sc2ccccc21` (centres undefined) came in with a melting point of 118 to 120 °C.

Molecule `COc1ccc(CCCCC(=O)O)cc1` came in with a melting point of 112 to 114 °C.

The molecule `CNC(C(=O)O)c1cc(F)c(F)c(F)c1` (centres undefined) came in with a melting point of 247 to 249 °C.

The molecule `CSCc1cc(C(=O)O)ccc1F` displayed a melting point of 119 to 121 °C.

For the molecule `CCn1nc(N)cc1C(F)(F)F`, the melting point lay in the range of 54 to 56 °C.

With `Cc1ccc(N)cc1S(N)(=O)=O`, the melting point lay in the range of 151 to 153 °C.

`CC(C)(C)OC(=O)N1CCc2ccccc21` displayed a melting point of 46 to 50 °C.

Molecule `O=C(O)c1ccccc1NS(=O)(=O)c1ccc(Br)cc1` registered a melting point of 225 to 227 °C.

With `NC(=O)c1ccc(N2CCSCC2)c(N)c1`, the melting point lay within 196 to 198 °C.

Regarding `CSc1nccn1-c1cccc(C(=O)O)c1`, the melting point is 225 to 227 °C.

The molecule `[N-]=[N+]=NS(=O)(=O)c1cccc2c1N=S=N2` gave a melting point of 118 to 120 °C.

For the molecule `O=C(O)c1ccc(NS(=O)(=O)c2cccc([N+](=O)[O-])c2)cc1`, the melting point lay in the range of 267 to 269 °C.

As to `Cc1ccc(-c2nn(-c3ccccc3)cc2C(=O)O)cc1`, the melting point lay in the range of 229 to 231 °C.

In turn, `Cc1ccc(F)c(NC(=S)NN)c1` had a melting point of 133 to 135 °C.

Molecule `COc1ccccc1CNCCO` gave a melting point of 65 to 67 °C.

In turn, `Nc1cc2c(c(C(=O)O)c1)OCCO2` yielded a melting point of 213 to 215 °C.

With `O=C(CCl)N1CCN(c2ncccn2)CC1`, the melting point was in the range of 100 to 102 °C.

`O=C1NC(=O)C2(CCc3ccccc32)N1` (centres undefined): the melting point lay within 229 to 231 °C.
